Literature values, collected in patent US12357627B2, “Pharmaceutical compositions of cabozantinib” (AZURITY PHARMACEUTICALS, INC., priority 2021, dated 2025).
≈ marks a conversion by molar mass, not a printed value. Where two headings read alike, the source gives them in different places.

How the values were obtained:
[1] = mass balance study
[2] = high-fat meal relative to fasted conditions, healthy subjects, single oral dose

COc1cc2nccc(Oc3ccc(NC(=O)C4(C(=O)Nc5ccc(F)cc5)CC4)cc3)c2cc1OC [Cabozantinib]
solubility (at pH>4): practically insoluble
solubility (in 0.01N HCl): 110 µg/mL (≈ 219 µM)
solubility (in water): practically insoluble
administered cabozantinib renally excreted [1]: at least 27%
increase of AUC [2]: 57%
increase of Cmax [2]: 41%
